Results as given in patent US11427549B2, “Pyrimidinyloxy benzo-fused compounds as herbicides” (FMC Corporation, priority 2017, dated 2022).

Key:
[1] = tested on: ryegrass, Italian (Italian ryegrass, Lolium multiflorum); assay: Test A postemergence, ryegrass, Italian; format: in vivo; settings: Lolium multiflorum, post-emergence, 240 h, 0 to 100 scale (0 no effect, 100 complete control), read-out: Plant response rating, Ryegrass, Italian; for pest or weed control at 31 g/ha: 31 g ai/ha; for pest or weed control at 125 g/ha: 125 g ai/ha
[2] = tested on: blackgrass (Alopecurus myosuroides); assay: Test A postemergence, blackgrass; format: in vivo; settings: Alopecurus myosuroides, post-emergence, 240 h, 0 to 100 scale (0 no effect, 100 complete control), read-out: Plant response rating, Blackgrass; for pest or weed control at 31 g/ha: 31 g ai/ha; for pest or weed control at 125 g/ha: 125 g ai/ha
[3] = tested on: corn (Zea mays); assay: Test A postemergence, corn; format: in vivo; settings: Zea mays, post-emergence, 240 h, 0 to 100 scale (0 no effect, 100 complete control); for Corn plant response rating (crop injury, 0 = no effect, 100 = complete kill) at 31 g/ha: 31 g ai/ha; for Corn plant response rating (crop injury, 0 = no effect, 100 = complete kill) at 125 g/ha: 125 g ai/ha
[4] = tested on: kochia (Kochia scoparia); assay: Test A postemergence, kochia; format: in vivo; settings: Bassia scoparia, post-emergence, 240 h, 0 to 100 scale (0 no effect, 100 complete control), read-out: Plant response rating, Kochia; for pest or weed control at 31 g/ha: 31 g ai/ha; for pest or weed control at 125 g/ha: 125 g ai/ha
[5] = tested on: galium (catchweed bedstraw, Galium aparine); assay: Test A postemergence, galium; format: in vivo; settings: Galium, post-emergence, 240 h, 0 to 100 scale (0 no effect, 100 complete control), read-out: Plant response rating, Galium; for pest or weed control at 31 g/ha: 31 g ai/ha; for pest or weed control at 125 g/ha: 125 g ai/ha
[6] = tested on: wheat (Triticum aestivum); assay: Test A postemergence, wheat; format: in vivo; settings: Triticum aestivum, post-emergence, 240 h, 0 to 100 scale (0 no effect, 100 complete control), read-out: Plant response rating, Wheat; for plant injury at 31 g/ha: 31 g ai/ha; for plant injury at 125 g/ha: 125 g ai/ha
[7] = tested on: pigweed (Amaranthus retroflexus); assay: Test A postemergence, pigweed; format: in vivo; settings: Amaranthus retroflexus, post-emergence, 240 h, 0 to 100 scale (0 no effect, 100 complete control), read-out: Plant response rating, Pigweed; for pest or weed control at 31 g/ha: 31 g ai/ha; for pest or weed control at 125 g/ha: 125 g ai/ha
[8] = tested on: rice (Oryza sativa); assay: Test B flooded paddy test, rice; settings: Oryza sativa, read-out: Plant response rating, Rice (0 to 100 scale, 0 is no effect, 100 is complete control)
[9] = tested on: foxtail, green (green foxtail, Setaria viridis); assay: Test A preemergence, foxtail, green; format: in vivo; settings: Setaria, pre-emergence, 240 h, 0 to 100 scale (0 no effect, 100 complete control), read-out: Plant response rating, Foxtail, Green; for pest or weed control at 31 g/ha: 31 g ai/ha; for pest or weed control at 125 g/ha: 125 g ai/ha
[10] = tested on: pigweed (Amaranthus retroflexus); assay: Test A preemergence, pigweed; format: in vivo; settings: Amaranthus retroflexus, pre-emergence, 240 h, 0 to 100 scale (0 no effect, 100 complete control), read-out: Plant response rating, Pigweed; for pest or weed control at 31 g/ha: 31 g ai/ha; for pest or weed control at 125 g/ha: 125 g ai/ha
[11] = tested on: ryegrass, Italian (Italian ryegrass, Lolium multiflorum); assay: Test A preemergence, ryegrass, Italian; format: in vivo; settings: Lolium multiflorum, pre-emergence, 240 h, 0 to 100 scale (0 no effect, 100 complete control), read-out: Plant response rating, Ryegrass, Italian; for pest or weed control at 31 g/ha: 31 g ai/ha; for pest or weed control at 125 g/ha: 125 g ai/ha
[12] = tested on: barnyardgrass (Echinochloa crus-galli); assay: Test A preemergence, barnyardgrass; format: in vivo; settings: Echinochloa crus-galli, pre-emergence, 240 h, 0 to 100 scale (0 no effect, 100 complete control), read-out: Plant response rating, Barnyardgrass; for pest or weed control at 31 g/ha: 31 g ai/ha; for pest or weed control at 125 g/ha: 125 g ai/ha
[13] = tested on: ragweed (common ragweed, Ambrosia elatior); assay: Test A postemergence, ragweed; format: in vivo; settings: Ambrosia artemisiifolia, post-emergence, 240 h, 0 to 100 scale (0 no effect, 100 complete control), read-out: Plant response rating, Ragweed; for pest or weed control at 31 g/ha: 31 g ai/ha; for pest or weed control at 125 g/ha: 125 g ai/ha
[14] = tested on: barnyardgrass (Echinochloa crus-galli); assay: Test B flooded paddy test, barnyardgrass; settings: Echinochloa crus-galli, read-out: Plant response rating, Barnyardgrass (0 to 100 scale, 0 is no effect, 100 is complete control)
[15] = tested on: ragweed (common ragweed, Ambrosia elatior); assay: Test A preemergence, ragweed; format: in vivo; settings: Ambrosia artemisiifolia, pre-emergence, 240 h, 0 to 100 scale (0 no effect, 100 complete control), read-out: Plant response rating, Ragweed; for pest or weed control at 31 g/ha: 31 g ai/ha; for pest or weed control at 125 g/ha: 125 g ai/ha
[16] = tested on: ducksalad (Heteranthera limosa); assay: Test B flooded paddy test, ducksalad; settings: Heteranthera limosa, read-out: Plant response rating, Ducksalad (0 to 100 scale, 0 is no effect, 100 is complete control)
[17] = tested on: kochia (Kochia scoparia); assay: Test A preemergence, kochia; format: in vivo; settings: Bassia scoparia, pre-emergence, 240 h, 0 to 100 scale (0 no effect, 100 complete control), read-out: Plant response rating, Kochia; for pest or weed control at 31 g/ha: 31 g ai/ha; for pest or weed control at 125 g/ha: 125 g ai/ha
[18] = tested on: barnyardgrass (Echinochloa crus-galli); assay: Test A postemergence, barnyardgrass; format: in vivo; settings: Echinochloa crus-galli, post-emergence, 240 h, 0 to 100 scale (0 no effect, 100 complete control), read-out: Plant response rating, Barnyardgrass; for pest or weed control at 31 g/ha: 31 g ai/ha; for pest or weed control at 125 g/ha: 125 g ai/ha

| Compound | pest or weed control at 31 g/ha [1] [%] | pest or weed control at 125 g/ha [1] [%] | pest or weed control at 31 g/ha [2] [%] | pest or weed control at 125 g/ha [2] [%] | Corn plant response rating (crop injury, 0 = no effect, 100 = complete kill) at 31 g/ha [3] [%] | Corn plant response rating (crop injury, 0 = no effect, 100 = complete kill) at 125 g/ha [3] [%] | pest or weed control at 31 g/ha [4] [%] | pest or weed control at 125 g/ha [4] [%] | pest or weed control at 31 g/ha [5] [%] | pest or weed control at 125 g/ha [5] [%] | plant injury at 31 g/ha [6] [%] | plant injury at 125 g/ha [6] [%] | pest or weed control at 31 g/ha [7] [%] | pest or weed control at 125 g/ha [7] [%] | plant injury at 250 g/ha [8] [%] | pest or weed control at 31 g/ha [9] [%] | pest or weed control at 125 g/ha [9] [%] | pest or weed control at 31 g/ha [10] [%] | pest or weed control at 125 g/ha [10] [%] | pest or weed control at 31 g/ha [11] [%] | other results |
| --- | --- | --- | --- | --- | --- | --- | --- | --- | --- | --- | --- | --- | --- | --- | --- | --- | --- | --- | --- | --- | --- |
| O=C1OC(CCC(F)(F)F)c2c(Oc3ncc(Cl)cn3)cccc21 (stereo not drawn) [Compound 4, 4-[(5-Chloro-2-pyrimidinyl)oxy]-3-(3,3,3-trifluoropropyl)-1(3H)-isobenzofuranone] | 20 | 90 | 40 | 90 | 30 | 80 | 90 | 100 | 100 | 100 | 20 | 80 | 90 | 100 | 45 | 100 | 100 | 100 | 100 | 20 | pest or weed control at 125 g/ha [11]: 100%; pest or weed control at 31 g/ha [12]: 70%; pest or weed control at 125 g/ha [12]: 100%; pest or weed control at 31 g/ha [13]: 0%; pest or weed control at 125 g/ha [13]: 80%; pest or weed control at 250 g/ha [14]: 35%; pest or weed control at 31 g/ha [15]: 20%; pest or weed control at 125 g/ha [15]: 70%; pest or weed control at 250 g/ha [16]: 100%; pest or weed control at 31 g/ha [17]: 90%; pest or weed control at 125 g/ha [17]: 100%; pest or weed control at 31 g/ha [18]: 30%; pest or weed control at 125 g/ha [18]: 90% |
| O=C1COC(CCCC(F)(F)F)c2c(Oc3ncc(Cl)cn3)cccc21 (stereo not drawn) [Compound 5, 8-[(5-Chloro-2-pyrimidinyl)oxy]-1-(4,4,4-trifluorobutyl)-1H-2-benzopyran-4(3H)-one] | 0 | 10 | 10 | 10 | 0 | 10 | 0 | 10 | 0 | 30 | 0 | 0 | 10 | 90 | 40 | 0 | 0 | 0 | 90 | 0 | pest or weed control at 125 g/ha [11]: 0%; pest or weed control at 31 g/ha [12]: 0%; pest or weed control at 125 g/ha [12]: 0%; pest or weed control at 31 g/ha [13]: 0%; pest or weed control at 125 g/ha [13]: 0%; pest or weed control at 250 g/ha [14]: 0%; pest or weed control at 31 g/ha [15]: 0%; pest or weed control at 125 g/ha [15]: 0%; pest or weed control at 250 g/ha [16]: 60%; pest or weed control at 31 g/ha [17]: 0%; pest or weed control at 125 g/ha [17]: 0%; pest or weed control at 31 g/ha [18]: 0%; pest or weed control at 125 g/ha [18]: 10% |
